# Tests used:
# Format in all cases: in vivo
# [1] = tested on: Nilaparvata lugens (Stal) nymphs; test: Joint toxicity of I-72 + etofenprox, Example 44, Table 44; conditions: in Oryza sativa, 72 h
# Experimental: Test target: Nilaparvata lugens (Stal) nymphs, a sensitive strain reared indoors.
# (§1) Preparation of the pesticide solution: according to different test requirements, the test samples were accurately weighed respectively with an electronic analytical balance. The technical pesticides were dissolved in acetone, and then diluted with 0.1% Tween 80 water into a series of pesticide solutions with a certain concentration gradient according to the experimental design dosage.
# Experimental method: the activity of the mixture against the Nilaparvata lugens (Stal) nymphs was determined by adopting the potted-seedling spraying method. First, rice seedlings were planted in culture pots. Uniform spraying was performed with the pesticide solution in the order from low dosage to high dosage according to the experimental design, with 2 mL for each seedling. Then, Nilaparvata lugens nymphs of uniform size were transferred onto the rice seedlings, with 3 replicates for each treatment. In addition, a blank control was set up.
# (§2) The treated test materials were placed in an observation room, and the temperature, humidity and illumination of the observation room could be adjusted as needed. The number of dead and live insects was investigated 72 hours later. […] Then, the co-toxicity coefficient of each ratio was calculated using the Sun Y-P method to evaluate the mixing effect (the same as in Example 1).
# [2] = tested on: 2nd-instar larvae of Plutella xylostella; test: Joint toxicity of I-72 + spiropidion, Example 31, Table 31; conditions: A = compound I-72, B = spiropidion; cabbage leaf dipping; 72 hours
# Experimental: Test target: 2nd-instar larvae of Plutella xylostella.
# as §1
# (§3) Experimental method: first, cabbage leaves were selected and dipped in the prepared pesticide solution for 10 s in the order from low dosage to high dosage according to the experimental design. After natural air-drying in the shade, they were placed in a 9-cm-diameter Petri dish with filter paper, and uniform and healthy test insects were introduced, with 10 insects for each treatment and 3 replicates for each treatment. In addition, a blank control was set up.
# as §2
# [3] = tested on: Aphis gossypii Glover nymphs; test: Joint toxicity of I-72 + spiropidion, Example 28, Table 28; conditions: A = compound I-72, B = spiropidion; cotton leaf spraying; 48 hours
# Experimental: Test target: Aphis gossypii Glover nymphs, a sensitive strain reared indoors.
# as §1
# (§4) Experimental method: first, cotton leaves with uniform and consistent Aphis gossypii were selected, with about 30-40 insects on each leaf. Then, they were evenly sprayed with the pesticide solution in the order from low dosage to high dosage according to the experimental design, with 1.5 mL for each leaf and 3 replicates for each treatment. In addition, a blank control was set up.
# as §2, with “48” for “72”
# [4] = tested on: adult Phyllotreta vittuta Fabr.; test: Joint toxicity of I-72 + deltamethrin, Example 45, Table 45; conditions: 72 h
# Experimental: Test target: adult Phyllotreta vittuta Fabr.
# as §1
# Experimental method: first, uniform and consistent potted cabbage seedlings were selected. Then, uniform spraying was performed with the pesticide solution in the order from low dosage to high dosage according to the experimental design. After air-drying in the shade, adult flea beetles were transferred onto the treated cabbage seedlings, and then glass covers were put on them, with about 30-40 adult flea beetles on each seedling and 3 replicates for each treatment. In addition, a blank control was set up.
# as §2
# [5] = tested on: 3rd-instar larvae of Ostrinia furnacalis Guenee; test: Joint toxicity of I-72 + lambda-cyhalothrin, Example 42, Table 42; conditions: in Zea mays, 72 h
# Experimental: Test target: 3rd-instar larvae of Ostrinia furnacalis Guenee.
# as §1
# as §3, with “tender corn stems” for “cabbage leaves”
# as §2
# [6] = tested on: Bemisia tabaci (Gennadius) nymphs; test: Joint toxicity of I-72 + bifenthrin, Example 40, Table 40; conditions: in Gossypium hirsutum, 96 h
# Experimental: Test target: Bemisia tabaci (Gennadius) nymphs, a sensitive strain reared indoors.
# as §1
# as §4, with “neat” for “uniform”, “Bemisia tabaci (Gennadius) nymphs” for “Aphis gossypii”, “selected and made into leaf disks,” for “selected,”, “20” for “30-40”, “leaf disk.” for “leaf.”
# as §2, with “96” for “72”
# [7] = tested on: Thrips flavus Schrank nymphs; test: Joint toxicity of I-72 + spirotetramat, Example 26, Table 26; conditions: in Solanum melongena, 48 h
# Experimental: Test target: Thrips flavus Schrank nymphs.
# as §1
# Experimental method: first, eggplant seedlings with Thrips flavus Schrank were selected, and the base number was counted. Then, uniform spraying was performed with the pesticide solution in the order from low to high doses according to the experimental design, with 2 mL for each seedling and 3 replicates for each treatment. In addition, a blank control was set up.
# as §2, with “48” for “72”
# [8] = tested on: Unaspis yanonensis Kuwana nymphs; test: whole plant or invertebrate; conditions: foliar, 120 h
# Experimental: Test target: Unaspis yanonensis Kuwana nymphs.
# as §1
# Experimental method: the activity of the mixture against Unaspis yanonensis Kuwana nymphs on citrus was determined by adopting the dipping method. First, the collected citrus leaves with Unaspis yanonensis Kuwana nymphs were treated with the pesticide solution in the order from low dosage to high dosage according to the experimental design. After air-drying, the petioles were kept moist with degreased cotton, and then the leaves were placed in a Petri dish, with 3 replicates for each treatment. In addition, a blank control was set up.
# The treated test materials were placed in an observation room, and the temperature, humidity and illumination of the observation room could be adjusted as needed. The number of dead and live insects was investigated 120 hours later.
# [9] = tested on: adult Tetranychus urticae Koch; test: Joint toxicity of I-72 + spirobudifen, Example 29, Table 29; conditions: 72 h
# Experimental: as §1
# In addition, a blank control was set up.
# The treated test materials were placed in an observation room, and the temperature, humidity and illumination of the observation room could be adjusted as needed.
# [10] = tested on: mixed aphids of Myzus persicae (Sulzer); test: Joint toxicity of I-72 + matrine, Example 34, Table 34; conditions: in Brassica oleracea, 48 h
# Description: Test subject: mixed aphids of Myzus persicae (Sulzer), a sensitive strain reared indoors.
# Experimental method: the spraying method on leaves with aphids was adopted. Cabbage leaves with a certain number of Myzus persicae (Sulzer) were taken. The prepared pesticide solutions were evenly sprayed on both the front and back sides of the leaves in the order from low concentration to high concentration according to the experimental design. Then, the leaves were placed in a 6-cm-diameter Petri dish with filter paper. After natural air-drying in the shade, they were placed in the observation room. The experiment had 3 replicates set, and in addition, a blank control was set up. The number of dead and live insects was investigated 48 hours later. The corrected mortality rate was calculated using the Abbott's formula, and the DPS data processing software was used for statistical analysis to calculate the toxicities (LC50 values) of the single test pesticides and the mixtures under the test ratios.
# (§5) The test conditions, the preparation of the pesticide solution and the evaluation method were the same as those in Example 1.
# [11] = tested on: adult Phyllotreta striolata (Walker); test: Joint toxicity of I-72 + rotenone, insect dipping, Example 35, Table 35
# Description: Test target: adult Phyllotreta striolata (Walker), a strain reared indoors.
# Experimental method: the dipping method was adopted. Adult flea beetles of uniform size were put into an insect-dipping cage and dipped for 10 s in the order from low dosage to high dosage according to the experimental design, with 30 beetles for each treatment. The beetles were placed in a 9-cm-diameter Petri dish with filter paper, with 3 replicates for each treatment. In addition, a blank control was set up. The treated test materials were placed in an observation room, and the temperature, humidity and illumination of the observation room could be adjusted as needed.
# as §5
# [12] = tested on: adult Tetranychus cinnabarinus (Boisduval); test: Joint toxicity of I-72 + fenpropathrin, Example 39, Table 39; conditions: 72 h
# Experimental: Test target: adult Tetranychus cinnabarinus (Boisduval), a sensitive strain reared indoors.
# as §1
# Experimental method: the activity of the mixture against the adult Tetranychus cinnabarinus (Boisduval) was determined by adopting the potted-seedling spraying method. First, the adult Tetranychus cinnabarinus of uniform size were transferred onto the leaves of kidney bean seedlings at the stage when the first pair of true leaves was fully expanded. After the adult mites had stabilized, the base number was counted. Then, the uniform spraying was performed with the pesticide solution in the order from low to high dose according to the experimental design, with 1.5 mL for each seedling and 3 replicates for each treatment. […]
# as §2, with “needed.” for “needed. The number of dead and live insects was investigated 72 hours later.”, “effect,” for “effect (the same”, “1.” for “1).”
# [13] = tested on: 2nd-instar larvae of Chilo suppressalis (Walker); test: Joint toxicity of I-72 + azadirachtin, Example 36, Table 36; conditions: in Oryza sativa, 72 h
# Description: Test target: 2nd-instar larvae of Chilo suppressalis (Walker). The insect source was collected from Nanchang, Jiangxi Province, and it is the 11th generation continuously cultured indoors, with a relatively high resistance level to amide pesticides such as chlorantraniliprole.
# Experimental method: the spraying method was adopted. Rice stalks with the same length and thickness were selected, cut into the same length, and evenly sprayed with the pesticide solution in the order from low dosage to high dosage according to the experimental design, with 1.5 mL of the pesticide solution for each treatment. The stalks were placed in a 6-cm-diameter Petri dish with filter paper. After natural air-drying in the shade, uniform and healthy test insects were introduced, with 10 insects for each treatment and 4 replicates for each treatment. In addition, a blank control was set up. The number of dead and live insects was investigated 72 hours later. The corrected mortality rate was calculated using the Abbott's formula, and the DPS data processing software was used for statistical analysis to calculate the toxicities (LC50 values) of the single test pesticides and the mixtures under the test ratios.
# as §5
# [14] = tested on: 2nd-instar larvae of Mythimna separata; test: Joint toxicity of I-72 + beta-cyfluthrin, Example 41, Table 41; conditions: A = compound I-72, B = beta-cyfluthrin; corn leaf dipping; 72 hours
# Experimental: Test target: 2nd-instar larvae of Mythimna separata.
# as §1
# as §3, with “corn” for “cabbage”
# as §2
# [15] = tested on: second-instar larvae of Meloidogyne incognita; test: In vitro joint toxicity of I-72 + fluopyram, 24-well plate, Example 32, Table 32; conditions: 48 h
# Experimental: Test target: second-instar larvae of Meloidogyne incognita, a sensitive strain reared in a greenhouse.
# as §1
# Experimental method: the prepared pesticide solutions were added to a 24-well plate in the order from low dosage to high dosage according to the experimental design. In each well of each treatment, 50 nematodes were placed. Each drug had 5 concentrations set, with 3 replicates. After the treatment, the 24-well plate was placed in a constant temperature incubator at 25° C. In addition, a blank control group was set up. The number of dead and live insects was investigated 48 hours later. […] Then, the co-toxicity coefficient of each ratio was calculated using the Sun Y-P method to evaluate the mixing effect (the same as in Example 1).
smiles,measurement,setting,value
CCOc1ccc(C(C)(C)COCc2cccc(Oc3ccccc3)c2)cc1 [etofenprox],LC50,[1],25.4 µg/mL
CCOC(=O)OC1=C(c2c(C)cc(Cl)cc2C)C(=O)N(C)C12CCN(OC)CC2 [spiropidion],LC50,[2],631.4873 µg/mL
same,LC50,[3],4.8686 µg/mL
CC1(C)[C@H](C(=O)O[C@H](C#N)c2cccc(Oc3ccccc3)c2)[C@@H]1C=C(Br)Br [deltamethrin],LC50,[4],6.76 µg/mL
CC1(C)[C@H](C(=O)O[C@H](C#N)c2cccc(Oc3ccccc3)c2)[C@@H]1/C=C(\Cl)C(F)(F)F (racemic) [lambda-cyhalothrin],LC50,[5],1.83 µg/mL
Cc1c(COC(=O)[C@@H]2[C@H](/C=C(\Cl)C(F)(F)F)C2(C)C)cccc1-c1ccccc1 (racemic) [bifenthrin],LC50,[6],62.4 µg/mL
CCOC(=O)OC1=C(c2cc(C)ccc2C)C(=O)N[C@]12CC[C@@H](OC)CC2 [spirotetramat],LC50,[7],12.3 µg/mL
same,LC50,[8],8.91 µg/mL
same,LC50,[9],8.2 µg/mL
O=C1CCC[C@@H]2[C@H]3CCCN4CCC[C@@H](CN12)[C@@H]34 [matrine],LC50,[10],3.24 µg/mL
C=C(C)[C@H]1Cc2c(ccc3c2O[C@@H]2COc4cc(OC)c(OC)cc4[C@@H]2C3=O)O1 [rotenone],LC50,[11],19.5 µg/mL
CC1(C)C(C(=O)OC(C#N)c2cccc(Oc3ccccc3)c2)C1(C)C (stereo not drawn) [fenpropathrin],LC50,[12],5.52 µg/mL
C/C=C(\C)C(=O)O[C@H]1C[C@@H](OC(C)=O)[C@@]2(C(=O)OC)CO[C@H]3[C@@H](O)[C@@](C)([C@]45O[C@@]4(C)[C@H]4C[C@@H]5O[C@@H]5OC=C[C@@]54O)[C@H]4[C@]1(CO[C@]4(O)C(=O)OC)[C@@H]32 [azadirachtin],LC50,[13],22.5 µg/mL
CC1(C)C(C=C(Cl)Cl)C1C(=O)OC(C#N)c1ccc(F)c(Oc2ccccc2)c1 (stereo not drawn) [beta-cyfluthrin],LC50,[14],1.0438 µg/mL
O=C(NCCc1ncc(C(F)(F)F)cc1Cl)c1ccccc1C(F)(F)F [fluopyram],LC50,[15],0.609 µg/mL

# Source: patent US20260198495A1, “BINARY INSECTICIDE COMPOSITION AND USE THEREOF” (SHENYANG SINOCHEM AGROCHEMICALS R & D CO., LTD., priority 2022, published 2026)
